{"source": "paper PMC10065791", "about": "(eLife, 2023)", "key": {"wild-type virus NL4-3": {"system": "wild-type virus NL4-3", "test": "TZM infection assay (cell culture-based viral inhibition), wild-type virus", "design": "species or system HIV-1", "details": "Human immunodeficiency virus 1, NL43; wild-type NL4-3 virus; concentration at time of virus production reducing infectivity by 50%; TZM-bl readout", "experimental": "PI dilutions were prepared by taking 10 µM stocked and performing a fivefold serial dilution using RPMI media (final drug concentration is […]). One dilution of drug was added to each well of a 24-well plate and repeated so each virus would have a full set of dilutions. Viruses for the assay were made by seeding 3 × 10^6 CEM cells in a 24-well plate and incubating with 250 µl of virus at 37°C for 2–3 hr before bringing the culture to 10 ml with RPMI media. After 48 hr, the medium was changed and repeated every 48 hr after until the culture had undergone CPE. Infected CEM cells were collected and diluted so that 1 ml of cells could be plated in each well containing a unique drug dilution. Then 24 hr later the virus supernatant was collected from each well followed by filtering through a […] then placed in –80°C. Viruses were thawed and added to 96-well plates in triplicate. TZM-bl cells were collected and diluted to a concentration of 2 × 10^5 cells/ml, 100 µl were added on top of the pre-plated viruses. Plates were kept in 37°C, 5% CO2 in an incubator for 48 hr. After 48 hr, the cells in the plates were lysed by removing the medium, washing two times with 100 µl PBS, and then lysed with 1× lysis buffer (made from 5× Promega Firefly Lysis Buffer). Plates were frozen for at least 24 hr and then thawed for 2 hr before analyzing with Promega Firefly Luciferase Kit on a luminometer. Data was analyzed with Prism 7 to fit sigmoidal dose–response curves."}, "[1]": {"system": "HIV-1 NL4-3 wild-type virus", "test": "Selection for resistance in CEMx174 culture with escalating inhibitor, start wild-type virus, Primer ID deep sequencing", "assay_type": "cell-based", "experimental": ". The selection experiments were performed under two separate starting conditions: first when the starting virus was generated from the NL4-3 clone (this clone closely approximates the clade B consensus for the protease amino acid sequence and will be referred to as ‘wild type’), then again when the starting virus was a mixture of 26 isogenic viruses each with a single mutation associated with drug resistance in the NL4-3 background. […]. For technical reasons, only five of the selections starting with the mixture of mutants reached an inhibitor concentration as high as 400 nM and are reported here (Figure 2—figure supplement 3).\nResistance mutations selected in the protease coding domain during the escalating selective pressure of increasing PI concentration were examined at various timepoints using a next-generation sequencing (NGS) protocol that included Primer ID with the MiSeq platform ([Zhou et al., 2015]). We first examined the sequence of the most abundant variant in each of the two selection schemes present at the highest inhibitor concentration reached (Figure 2A). For those selections that reached 5 μM, 8–14 mutations were present in the most abundant variant. Typically the next two most abundant variants in the population differed by a single amino acid, and on average the three most abundant variants in the 5 μM cultures accounted for 88% of the total viral population (Figure 2—source data 1). Evolution of resistance followed two pathways, one based on I50V and one based on I84V. In three cultures, V2wt, V5wt, and V2mut (which reached either 4 or 5 μM final drug concentration; V2wt indicates the virus pool selected with UMASS-2 starting with wild-type virus), these two mutations, I84V and I50V, became linked on the same genome (Figure 2A) showing they are not mutually exclusive; […].\nAn aliquot of 3 × 10^6 CEMx174 cells was incubated at 37°C for 2–3 hr with 250 µl of a virus stock generated from the HIV-1 infectious molecular clone pNL4-3. The culture volume was then brought to 10 ml with RPMI medium. […] After 48 hr and every 48 hr after, the cells were pelleted by centrifugation and 10 ml of fresh medium and inhibitors were added. When the culture had undergone extensive cytopathic effect (CPE) indicative of viral replication, the supernatant medium and the cells were harvested separately and stored at –80°C. The virus-containing supernatant was used to start the next round of infection, and after several rounds at the initial concentration, the inhibitor concentration was increased 1.5-fold at each subsequent round of virus passage.\nWe used the PID protocol to prepare MiSeq PID libraries with multiplexed primers. Viral RNA was extracted from plasma samples using the QIAamp viral RNA mini kit (QIAGEN, Hilden, Germany). Complementary DNA (cDNA) was synthesized using a cDNA primer mixture targeting protease (PR) with a block of random nucleotides in each cDNA primer serving as the PID, and SuperScript III RT (Thermo Fisher). After two rounds of bead purification of the cDNA, we amplified the cDNA using a mixture of a forward primer that targeted the upstream coding region, followed by a second round of PCR to incorporate the Illumina adaptor sequences. Gel-purified libraries were pooled and sequenced using the MiSeq 300 base paired-end sequencing protocol (Illumina). The sequencing covered the HIV-1 PR region (HXB2 2648-2914, 3001-3257).\nWe used the Illumina bcl2fastq pipeline for the initial processing and constructed template consensus sequences (TCSs) with TCS pipeline version 1.33 (https://github.com/SwanstromLab/PID) ([Zhou, 2019]). We then aligned TCSs to an HXB2 reference to remove sequences not at the targeted region or that had large deletions. We used the Entropy tool at LANL (https://www.hiv.lanl.gov/content/sequence/ENTROPY/entropy.html) to calculate entropy for each specimen. The sequencing data is available at NIH Sequencing Read Archive (SRA) under BioProject ID PRJNA853351."}}, "data": [{"smiles": "CC[C@H](C)CN(C[C@@H](O)[C@H](Cc1ccccc1)NC(=O)O[C@H]1CO[C@H]2OCC[C@H]21)S(=O)(=O)c1ccc(CO)cc1", "note": "[UMASS-3]", "values": [{"measurement": "EC50", "setting": "wild-type virus NL4-3", "result": "9.1 ± 1", "unit": "nM"}, {"measurement": "Abundance of variant at the last time point", "setting": "[1]; variant 10F/33F/46I/47V/50V/53L/63P/71V/76S/82I, passage 93, [PI] 5000 nM", "result": 0.9, "unit": "%"}, {"measurement": "Abundance of variant at the last time point", "setting": "[1]; variant 10F/33F/46I/47V/50V/53L/63P/71V/76S/82I/85V/89I, passage 93, [PI] 5000 nM", "result": 85.7, "unit": "%"}, {"measurement": "Abundance of variant at the last time point", "setting": "[1]; variant 10F/33F/46I/47V/50V/53L/63P/71V/76S/82I/85V/89I/91S, passage 93, [PI] 5000 nM", "result": 1.1, "unit": "%"}]}, {"smiles": "CC[C@H](C)CN(C[C@@H](O)[C@H](Cc1ccccc1)NC(=O)O[C@H]1CO[C@H]2OCC[C@H]21)S(=O)(=O)c1ccc2c(c1)OCO2", "note": "[UMASS-4]", "values": [{"measurement": "EC50", "setting": "wild-type virus NL4-3", "result": "3.2 ± 0.4", "unit": "nM"}, {"measurement": "Abundance of variant at the last time point", "setting": "[1]; variant 10F/11I/13V/32I/33F/43T/46L/54L/71V/82I/84V/89M/91S/92R, passage 81, [PI] 5000 nM", "result": 87.3, "unit": "%"}, {"measurement": "Abundance of variant at the last time point", "setting": "[1]; variant 10F/11I/32I/33F/43T/46L/54L/71V/82I/84V/89M/91S, passage 81, [PI] 5000 nM", "result": 1.3, "unit": "%"}, {"measurement": "Abundance of variant at the last time point", "setting": "[1]; variant 10F/11I/32I/33F/46L/54L/71V/82I/84V/89M/91S, passage 81, [PI] 5000 nM", "result": 1.1, "unit": "%"}]}, {"smiles": "CC[C@H](C)CN(C[C@@H](O)[C@H](Cc1ccccc1)NC(=O)O[C@H]1CO[C@H]2OCC[C@H]21)S(=O)(=O)c1ccc2ncsc2c1", "note": "[UMASS-5]", "values": [{"measurement": "EC50", "setting": "wild-type virus NL4-3", "result": "4 ± 0.5", "unit": "nM"}, {"measurement": "Abundance of variant at the last time point", "setting": "[1]; variant 10F/15V/46I/47V/50V/53L/71V/82I/84V/89T, passage 77, [PI] 5000 nM", "result": 67.9, "unit": "%"}, {"measurement": "Abundance of variant at the last time point", "setting": "[1]; variant 10F/46I/47V/50V/53L/63P/71V/82I/84V/89M, passage 77, [PI] 5000 nM", "result": 8.8, "unit": "%"}, {"measurement": "Abundance of variant at the last time point", "setting": "[1]; variant 10F/46I/47V/50V/53L/71V/82I/84V/89T, passage 77, [PI] 5000 nM", "result": 10.9, "unit": "%"}]}, {"smiles": "CCC(CC)CN(C[C@@H](O)[C@H](Cc1ccccc1)NC(=O)O[C@H]1CO[C@H]2OCC[C@H]21)S(=O)(=O)c1ccc(N)cc1", "note": "[UMASS-6]", "values": [{"measurement": "EC50", "setting": "wild-type virus NL4-3", "result": "5.2 ± 0.8", "unit": "nM"}, {"measurement": "Abundance of variant at the last time point", "setting": "[1]; variant 10F/13V/16E/33F/46I/47A/50V/53L/71V, passage 46, [PI] 5000 nM", "result": 2.2, "unit": "%"}, {"measurement": "Abundance of variant at the last time point", "setting": "[1]; variant 10F/13V/33F/46I/47A/50V/53L/63P/71V, passage 46, [PI] 5000 nM", "result": 42.3, "unit": "%"}, {"measurement": "Abundance of variant at the last time point", "setting": "[1]; variant 10F/13V/33F/46I/47A/50V/53L/71V, passage 46, [PI] 5000 nM", "result": 45.1, "unit": "%"}]}, {"smiles": "CCC(CC)CN(C[C@@H](O)[C@H](Cc1ccccc1)NC(=O)O[C@H]1CO[C@H]2OCC[C@H]21)S(=O)(=O)c1ccc(OC)cc1", "note": "[UMASS-7]", "values": [{"measurement": "EC50", "setting": "wild-type virus NL4-3", "result": "3.1 ± 0.5", "unit": "nM"}, {"measurement": "Abundance of variant at the last time point", "setting": "[1]; variant 10F/13V/33F/46I/47V/50V/53L/54L/67Y/71V/82I, passage 76, [PI] 5000 nM", "result": 0.2, "unit": "%"}, {"measurement": "Abundance of variant at the last time point", "setting": "[1]; variant 10F/13V/33F/46I/47V/50V/53L/54L/71V/82I, passage 76, [PI] 5000 nM", "result": 94.5, "unit": "%"}, {"measurement": "Abundance of variant at the last time point", "setting": "[1]; variant 10F/13V/33F/46I/47V/50V/53L/54L/71V/82I/87K, passage 76, [PI] 5000 nM", "result": 0.2, "unit": "%"}]}, {"smiles": "CCC(CC)CN(C[C@@H](O)[C@H](Cc1ccccc1)NC(=O)O[C@H]1CO[C@H]2OCC[C@H]21)S(=O)(=O)c1ccc2c(c1)OCO2", "note": "[UMASS-9]", "values": [{"measurement": "EC50", "setting": "wild-type virus NL4-3", "result": "6.4 ± 1.2", "unit": "nM"}, {"measurement": "Abundance of variant at the last time point", "setting": "[1]; variant 10F/13V/33F/41K/45R/46I/47V/50V/53L/54L/66F/71V/74A/76S/82I, passage 78, [PI] 5000 nM", "result": 0.7, "unit": "%"}, {"measurement": "Abundance of variant at the last time point", "setting": "[1]; variant 10F/13V/33F/45R/46I/47V/50V/53L/54L/66F/71V/74A/76S/82I, passage 78, [PI] 5000 nM", "result": 92.3, "unit": "%"}, {"measurement": "Abundance of variant at the last time point", "setting": "[1]; variant 10F/13V/33F/45R/46I/47V/50V/53L/54L/66F/71V/74A/76S/82I/87K, passage 78, [PI] 5000 nM", "result": 0.4, "unit": "%"}]}]}
